Laboratory results published in ChEMBL document CHEMBL1201862, “PubChem BioAssay data set” (2004).
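Where inhibition never reached the appropriate level, the endpoint shown equals the highest concentration tested. Otherwise, values were interpolated linearly from a five-concentration, 48-hour dose response in 96-well plates. Abbreviation: GI50, concentration required for 50% inhibition of growth.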 Active and inactive are the calls of the source. Rule as the data show it: active = GI50 up to about 1.1 µM and inactive = higher.

How the values were obtained:
Experiment in all cases: NCI-60 cell line screen, 48 h
DMS-114 = system: DMS-114
DMS-273 = system: DMS-273
HOP-18 = system: HOP-18
LXFL 529 = system: LXFL 529
RXF 631 = system: RXF 631
SNB-78 = system: SNB-78
XF498 = system: XF498
BT-549 = system: BT-549
T47D = system: T47D

Compound	GI50 (DMS-114)	GI50 (DMS-273)	GI50 (HOP-18)	GI50 (LXFL 529)	GI50 (RXF 631)	GI50 (SNB-78)	GI50 (XF498)	GI50 (BT-549)	GI50 (T47D)
CCNC(=O)COc1ccc(Br)cc1Br	> 100 µM (inactive)	> 100 µM (inactive)	> 100 µM (inactive)	> 100 µM (inactive)	69.7 µM (inactive)	> 100 µM (inactive)	–	–	–
Cc1cccc(C)c1NC(=O)C(=O)CC(=O)CO	> 100 µM (inactive)	> 100 µM (inactive)	> 100 µM (inactive)	> 100 µM (inactive)	> 100 µM (inactive)	> 100 µM (inactive)	–	–	–
c1cnc2c(c1)-n1cccc1C1(CCSC1)NN2 (centres undefined)	> 100 µM (inactive)	> 100 µM (inactive)	28.4 µM (inactive)	–	–	> 100 µM (inactive)	> 100 µM (inactive)	–	–
CC(C)N1C(C)[C@@H](c2ccccc2)O[P@@]1(=O)CC1=CCCCC1 (some centres undefined)	51.4 µM (inactive)	–	> 100 µM (inactive)	> 100 µM (inactive)	–	–	> 100 µM (inactive)	–	–
Nc1ccc(N)c2c1C(=O)c1c(N)ccc(N)c1C2=O	30.6 µM (inactive)	39 µM (inactive)	16.3 µM (inactive)	–	–	78.5 µM (inactive)	> 54.5 µM (inactive)	–	–
COC(=O)C(Cc1nc2ccccc2nc1O)C(=O)C(=O)Nc1ccc(OC)cc1[N+](=O)[O-] (centres undefined)	–	–	–	> 100 µM (inactive)	–	> 100 µM (inactive)	> 100 µM (inactive)	–	–
N#CC1(c2nc3ccccc3o2)C(=O)C(=O)N(c2ccc(Cl)c(Cl)c2)C(=O)C1=O	–	> 100 µM (inactive)	> 100 µM (inactive)	58.1 µM (inactive)	–	> 100 µM (inactive)	> 100 µM (inactive)	–	–
COc1cc(C)c(C)c(OC(=O)c2c(C)c(C)c(OC)c(C)c2OC)c1C	3.29 µM (inactive)	3.94 µM (inactive)	10.4 µM (inactive)	8.87 µM (inactive)	10.3 µM (inactive)	21.1 µM (inactive)	12.2 µM (inactive)	–	–
CCOC(=O)C1(Br)C(c2ccccc2)NC(=O)N(C2OC(COC(=O)c3ccccc3)C(OC(=O)c3ccccc3)C2OC(=O)c2ccccc2)C1(C)Br (centres undefined)	18.3 µM (inactive)	33.5 µM (inactive)	> 100 µM (inactive)	21.6 µM (inactive)	15.3 µM (inactive)	–	–	–	–
N#CC12CCC(O)C(CC1)C2=O (centres undefined)	19.4 µM (inactive)	96.8 µM (inactive)	> 100 µM (inactive)	> 10 µM (inactive)	> 100 µM (inactive)	> 100 µM (inactive)	> 100 µM (inactive)	–	–
Cc1cc2c(cc1CO)N1Cc3cc(C)c(CO)cc3N(C2)C1	> 100 µM (inactive)	> 100 µM (inactive)	> 100 µM (inactive)	> 100 µM (inactive)	–	> 100 µM (inactive)	> 100 µM (inactive)	–	–
Cn1nc(-c2ccccc2)c2c(/C=C/c3ccccc3)onc2c1=O	98.4 µM (inactive)	–	25.5 µM (inactive)	> 100 µM (inactive)	73.3 µM (inactive)	38.7 µM (inactive)	26.8 µM (inactive)	–	–
COc1cc2c(cc1OC)C(CC1=C(c3ccccc3)CN3CCc4cc(OC)c(OC)cc4C3C1)NCC2 (centres undefined)	14.3 µM (inactive)	15.7 µM (inactive)	14.6 µM (inactive)	16.6 µM (inactive)	14.8 µM (inactive)	15.6 µM (inactive)	11.7 µM (inactive)	–	–
CC(=O)C1C(=O)C(=O)N(c2ccccc2N2C(=O)C(=O)C(C(C)=O)C2=O)C1=O (centres undefined)	> 100 µM (inactive)	–	> 100 µM (inactive)	> 100 µM (inactive)	> 100 µM (inactive)	> 100 µM (inactive)	–	–	–
CC(C)OP(=O)(OC(C)C)/C(=N/Nc1ccc([N+](=O)[O-])cc1)NCCN/C(=N\Nc1ccc([N+](=O)[O-])cc1)P(=O)(OC(C)C)OC(C)C	3.85 µM (inactive)	3.7 µM (inactive)	–	3.17 µM (inactive)	–	–	3.18 µM (inactive)	–	–
COCN(C)c1nc(N(C)C)nc(N(C)C)n1	> 100 µM (inactive)	> 100 µM (inactive)	89.3 µM (inactive)	81.5 µM (inactive)	–	> 100 µM (inactive)	–	–	–
OCC1CC2C=CCC(C2)C1 (centres undefined)	> 100 µM (inactive)	> 100 µM (inactive)	> 100 µM (inactive)	> 100 µM (inactive)	–	> 100 µM (inactive)	> 100 µM (inactive)	–	–
NC1CC(n2ccc(=O)[nH]c2=O)OC1C(O)CO (centres undefined)	> 100 µM (inactive)	> 100 µM (inactive)	> 100 µM (inactive)	> 100 µM (inactive)	> 100 µM (inactive)	–	> 100 µM (inactive)	–	–
CC(=O)Nc1ccc(/C=C/C(=O)c2sc(-n3nc(-c4ccccc4)cc3-c3ccccc3)nc2C)cc1	74.8 µM (inactive)	> 10 µM (inactive)	> 10 µM (inactive)	> 10 µM (inactive)	> 10 µM (inactive)	> 10 µM (inactive)	–	–	–
COc1nc(NC2OCC(O)C(O)C2O)c(NC2OCC(O)C(O)C2O)c(=O)n1C (centres undefined)	> 100 µM (inactive)	> 100 µM (inactive)	> 100 µM (inactive)	> 100 µM (inactive)	–	> 100 µM (inactive)	> 100 µM (inactive)	–	–
O=C(O)CN(CC(=O)O)Cc1cc(C#Cc2ccc(C#Cc3ccccc3)cc2)cc(CN(CC(=O)O)CC(=O)O)n1	13.8 µM (inactive)	7.66 µM (inactive)	33.4 µM (inactive)	27.2 µM (inactive)	–	44.3 µM (inactive)	20.5 µM (inactive)	12.3 µM (inactive)	–
C=CCC12CC(=O)CCC1c1ccc(OC)cc1C2=O (centres undefined)	> 100 µM (inactive)	> 100 µM (inactive)	> 100 µM (inactive)	> 100 µM (inactive)	–	> 100 µM (inactive)	–	–	–
COc1cc(/C=C\c2ccc(SC)cc2)cc(OC)c1OC	< 0.0202 µM (active)	0.0258 µM (active)	0.0453 µM (active)	< 0.0221 µM (active)	–	0.0452 µM (active)	0.0908 µM (active)	< 0.01 µM (active)	19.7 µM (inactive)
Cc1c(Cl)ccc2c1NC(=O)C2(O)CC(=O)c1ccc(Cl)cc1 (centres undefined)	11.7 µM (inactive)	48.2 µM (inactive)	> 70.8 µM (inactive)	> 38.9 µM (inactive)	71.1 µM (inactive)	> 96.6 µM (inactive)	–	–	–
NC(CCC(=O)Nc1ccc(O)cc1)C(=O)O (centres undefined)	> 100 µM (inactive)	> 100 µM (inactive)	> 100 µM (inactive)	> 100 µM (inactive)	–	> 100 µM (inactive)	> 100 µM (inactive)	–	–
NCC(=O)OCN1C(=O)C2C3C=CC(C2C1=O)C1C2C(=O)N(COC(=O)CN)C(=O)C2C31 (centres undefined)	20.9 µM (inactive)	18.2 µM (inactive)	25.6 µM (inactive)	22.7 µM (inactive)	–	42 µM (inactive)	17.9 µM (inactive)	–	–
COC(=O)C(=O)C1CCCCC(C2=NC3NN=C(N)N3C2=O)C1=O (centres undefined)	> 100 µM (inactive)	> 100 µM (inactive)	> 100 µM (inactive)	> 100 µM (inactive)	> 100 µM (inactive)	–	> 100 µM (inactive)	–	–
COc1ccc(N/N=C(\CCN(C)C)c2ccccc2)cc1	10.9 µM (inactive)	3 µM (inactive)	22.1 µM (inactive)	1.6 µM (inactive)	–	12.8 µM (inactive)	–	–	–
